Assay results from patent US8420677B2, “Use of 3,3′-diindolylmethane” (priority 2008, dated 2013).

Tested on: D257A mice
Experiment: Auditory brainstem response (ABR) hearing function test in D257A mice fed the compounds
Format: in vivo
Excerpt: The test system was D257A−/− (D257A) mice that express a proofreading-deficient version of the mitochondrial DNA polymerase γ (POLG). These mice display features of accelerated aging including age related hearing loss (presbycusis). Hearing loss can be monitored by an elevation in auditory-evoked brainstem response (Kujoth et al., Science 309, 481-484, 2005).
Heterozygous D257A (−1+) mice were bred to generate homozogous D257A (−/−) mice, denoted D257A hereafter. Animals were identified with specific numbering and ear clippings. D257A mice were placed in various dietary regimens following PCR based genotyping and weaning at 3 weeks of age. Mice received a diet based on AIN-93M maintenance purified diet (TestDiet, Richmond, USA), with neither no supplementation (Control group), or supplementation with DIM (40 mg/kg, BioResponse LLC Boulder, Colo.), (−)-epigallocatechin gallate, or (EGCG) (300 mg/kg, DSM Nutritional Products, Switzerland).
Hearing function was tested in 9 month-old D257A mice receiving the various compounds. Auditory brainstem responses (ABRs) were measured with a tone burst stimulus (8, 16 and 32 kHz) using an ABR recording system (Intelligent Hearing System, Miami Fla.). Animals were anesthetized with a mixture of xylazine hydrochloride (10 mg/kg, i.m.) and ketamine hydrochloride (40 mg/kg, i.m.), and needle electrodes were placed subcutaneously at the vertex (active electrode), beneath the pinna of the measured ear (reference electrode), and beneath the opposite ear (ground). The stimulus duration, presentation rate, and rise/fall time was 3 ms, 19.3/s, and 1 ms respectively. Responses of 1024 sweeps were averaged at each intensity level (5 dB steps) to access the hearing threshold. The hearing threshold was defined as the lowest intensity level at which a clear reproducible waveform was visible in the trace. Means of ABR thresholds were compared at 8, 16 and 32 kHz.

## c1ccc2c(Cc3c[nH]c4ccccc34)c[nH]c2c1 [DIM, 3,3′-diindolylmethane]
8 kHz, 9 month-old D257A mice, DIM 40 mg/kg in diet, control approximately 40 dB
  hearing threshold (auditory-evoked brain stem response threshold): approximately 10 dB
8 kHz, 9 month-old D257A mice, diet supplementation from weaning (DIM 40 mg/kg, EGCG 300 mg/kg), control 3 out of 8 deaf
  deaf mice (no auditory-evoked brainstem response): no deaf mice
32 kH, 9 month-old D257A mice, compared to the control group and the other tested compounds
  percentage of deaf mice: significantly lower
Supplementation from early age on, D257A mice
  effect on age related hearing loss: protective effect
